The term mortality denotes the share of the test organisms that died. The term inhibition denotes how much of the control response was suppressed.

Molecules are shown by their SMILES.

This passage reports mortality and inhibition results from ChEMBL document CHEMBL3046111, “Synthesis and insecticidal activity of 1,2,4-oxadiazole and 1,2,4-thiadiazole derivatives” (2011).

In one experiment the test system is Aphis craccivora. In words: Insecticidal activity against Aphis craccivora (cowpea aphid) apterous adults reared on broad bean seedlings followed by compound spraying at 200 ppm assessed as insect mortality measured after 4 days. In kind it is functional. As to conditions: 96 h.
The subject of experiment [1] is Nilaparvata lugens. In words: Insecticidal activity against imidacloprid-sensitive Nilaparvata lugens (brown planthopper) fourth-instar larvae reared on compound pre-treated rice seedlings assessed as insect mortality at 200 ppm measured after 7 days. The experiment is classed as functional.
The subject of experiment [2] is Nilaparvata lugens. In words: Insecticidal activity against imidacloprid-sensitive Nilaparvata lugens (brown planthopper) fourth-instar larvae reared on compound pre-treated rice seedlings assessed as insect mortality at 1 ppm measured after 7 days. The experiment is classed as functional.
Experiment [3] deals with Nilaparvata lugens. In words: Insecticidal activity against imidacloprid-sensitive Nilaparvata lugens (brown planthopper) fourth-instar larvae reared on compound pre-treated rice seedlings assessed as insect mortality at 10 ppm measured after 7 days. The experiment is classed as functional.
Experiment [4] concerns Nilaparvata lugens. The experiment can be described thus: Insecticidal activity against imidacloprid-resistant Nilaparvata lugens (brown plant hopper) fourth-instar larvae reared on compound pre-treated rice seedlings assessed as insect mortality at 1 ppm measured after 7 days. In kind it is functional.
For experiment [5], the system named is Nilaparvata lugens. The experiment can be described thus: Insecticidal activity against imidacloprid-resistant Nilaparvata lugens (brown planthopper) fourth-instar larvae reared on compound pre-treated rice seedlings assessed as insect mortality at 100 ppm measured after 7 days. The experiment is classed as functional.
Experiment [6] relates to Nilaparvata lugens. The experiment can be described thus: Insecticidal activity against imidacloprid-resistant Nilaparvata lugens (brown planthopper) fourth-instar larvae reared on compound pre-treated rice seedlings assessed as insect mortality at 10 ppm measured after 7 days. The experiment is classed as functional.
Experiment [7] has as its target T1, Muscarinic acetylcholine receptor DM1 (Drosophila melanogaster) (UniProt P16395).
T1 sequence (whole entry): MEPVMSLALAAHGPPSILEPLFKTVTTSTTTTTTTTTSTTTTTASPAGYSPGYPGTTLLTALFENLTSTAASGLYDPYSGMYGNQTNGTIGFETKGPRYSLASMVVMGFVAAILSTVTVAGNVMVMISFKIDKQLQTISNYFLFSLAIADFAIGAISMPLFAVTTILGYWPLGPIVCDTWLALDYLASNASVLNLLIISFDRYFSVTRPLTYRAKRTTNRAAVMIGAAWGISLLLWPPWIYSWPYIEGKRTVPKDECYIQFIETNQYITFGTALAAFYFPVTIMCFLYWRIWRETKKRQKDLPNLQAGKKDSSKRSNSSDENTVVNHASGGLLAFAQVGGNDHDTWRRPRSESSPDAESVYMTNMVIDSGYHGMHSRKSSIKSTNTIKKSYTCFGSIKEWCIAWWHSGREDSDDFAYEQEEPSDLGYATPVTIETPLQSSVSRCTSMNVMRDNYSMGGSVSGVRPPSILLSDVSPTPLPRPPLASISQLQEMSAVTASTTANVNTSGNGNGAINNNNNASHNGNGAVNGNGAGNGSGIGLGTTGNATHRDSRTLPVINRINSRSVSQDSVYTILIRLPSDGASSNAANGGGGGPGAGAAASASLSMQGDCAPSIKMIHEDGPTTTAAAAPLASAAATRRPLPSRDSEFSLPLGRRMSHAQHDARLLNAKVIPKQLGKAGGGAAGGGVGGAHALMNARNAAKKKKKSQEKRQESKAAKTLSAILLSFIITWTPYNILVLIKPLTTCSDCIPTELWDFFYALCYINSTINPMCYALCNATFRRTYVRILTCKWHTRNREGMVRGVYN
The experiment can be described thus: Inhibition of [3H]NMS from mAChR in Musca domestica (house fly) nerve-cord membranes at […] incubated at 21 degC for 60 min.

The test system of experiment [8] is Nilaparvata lugens. The experiment can be described thus: Insecticidal activity against imidacloprid-sensitive Nilaparvata lugens (brown planthopper) fourth-instar larvae reared on compound pre-treated rice seedlings assessed as insect mortality at 100 ppm measured after 7 days. The experiment is classed as functional.
The test system of experiment [9] is Nephotettix cincticeps. The experiment can be described thus: Insecticidal activity against Nephotettix cincticeps (green rice leafhopper) fourth instar larvae reared on compound pre-treated rice seedlings assessed as insect mortality at 100 ppm measured after 7 days. The experiment is classed as functional.
Experiment [10] concerns Nephotettix cincticeps. The experiment can be described thus: Insecticidal activity against Nephotettix cincticeps (green rice leafhopper) fourth instar larvae reared on compound pre-treated rice seedlings assessed as insect mortality at 10 ppm measured after 7 days. The experiment is classed as functional.
Experiment [11] deals with T2, Nicotinic acetylcholine receptor alpha 5 subunit (Musca domestica) (UniProt A9XFY4).
T2 sequence (whole entry): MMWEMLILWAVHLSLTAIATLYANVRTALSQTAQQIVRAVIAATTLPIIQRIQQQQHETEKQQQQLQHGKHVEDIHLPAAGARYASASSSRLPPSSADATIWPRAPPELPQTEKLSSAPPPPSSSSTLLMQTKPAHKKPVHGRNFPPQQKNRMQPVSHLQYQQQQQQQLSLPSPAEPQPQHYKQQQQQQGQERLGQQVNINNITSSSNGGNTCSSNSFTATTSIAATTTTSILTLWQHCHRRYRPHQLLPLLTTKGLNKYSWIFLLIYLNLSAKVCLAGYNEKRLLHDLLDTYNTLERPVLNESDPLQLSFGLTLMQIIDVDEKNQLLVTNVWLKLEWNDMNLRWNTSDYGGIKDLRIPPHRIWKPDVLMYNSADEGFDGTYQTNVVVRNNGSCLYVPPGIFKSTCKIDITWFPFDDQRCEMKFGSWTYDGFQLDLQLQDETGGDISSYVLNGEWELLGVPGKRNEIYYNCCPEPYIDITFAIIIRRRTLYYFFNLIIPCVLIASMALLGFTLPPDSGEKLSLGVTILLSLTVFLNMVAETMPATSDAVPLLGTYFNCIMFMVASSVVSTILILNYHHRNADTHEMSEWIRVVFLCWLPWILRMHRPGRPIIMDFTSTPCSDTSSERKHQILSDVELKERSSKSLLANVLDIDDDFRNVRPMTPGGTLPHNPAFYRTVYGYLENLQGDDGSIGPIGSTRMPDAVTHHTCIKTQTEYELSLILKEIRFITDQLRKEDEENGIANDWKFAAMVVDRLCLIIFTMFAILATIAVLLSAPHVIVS
In words: Inhibition of [3H]EPI from nicotinic acetylcholine receptor in Musca domestica (house fly) nerve-cord membranes at […] incubated at 21 degC for 60 min.

Experiment [12] relates to Nilaparvata lugens. The experiment can be described thus: Insecticidal activity against imidacloprid-resistant Nilaparvata lugens (brown planthopper) fourth-instar larvae reared on compound pre-treated rice seedlings assessed as insect mortality at 0.1 ppm measured after 7 days. In kind it is functional.
For experiment [13], the system named is Nilaparvata lugens. In words: Insecticidal activity against imidacloprid-sensitive Nilaparvata lugens (brown planthopper) fourth-instar larvae reared on compound pre-treated rice seedlings assessed as insect mortality at 0.1 ppm measured after 7 days. The experiment is classed as functional.

Consider `Cc1nsc(C2=CCCN(C)C2)n1`, for which the results for the mortality at 200 ppm in the experiment with Aphis craccivora and in the experiment with Nilaparvata lugens [1] were 40% and 100%, respectively. The results for the mortality at 1 ppm with Nilaparvata lugens [2] and with Nilaparvata lugens [4] were 30% and 50%, respectively. Further, the figures for the mortality at 10 ppm with Nilaparvata lugens [3], with Nilaparvata lugens [6] and in the experiment on Nephotettix cincticeps [10] were 80%, 90% and 0%, respectively. In addition, the mortality at 100 ppm in the experiment on Nilaparvata lugens [5] is 100%; in the experiment on Nilaparvata lugens [8], 100%; in the experiment with Nephotettix cincticeps [9], 30%. For the same molecule, the results for the inhibition in [7] and in [11] were 62% and 6%, respectively.

In the case of `O=[N+]([O-])/N=C1\NCCN1Cc1ccc(Cl)nc1` [IMIDACLOPRID], the mortality at 0.1 ppm was determined as 50% with Nilaparvata lugens [12] and 90% in the experiment on Nilaparvata lugens [13]. For the same molecule, the mortality at 1 ppm in the experiment with Nilaparvata lugens [2] was 100%; with Nilaparvata lugens [4] it was 80%. The mortality at 10 ppm in the experiment with Nilaparvata lugens [6] was 100%.

For `Cc1nsc(-c2cccnc2)n1`, the mortality at 200 ppm in the experiment with Aphis craccivora and in the experiment on Nilaparvata lugens [1] was 100% throughout. For the same molecule, the values for the mortality at 1 ppm with Nilaparvata lugens [2] and in the experiment on Nilaparvata lugens [4] were 60% and 50%, respectively. Moreover, the mortality at 10 ppm in the experiment with Nilaparvata lugens [3] came to 80%; in the experiment with Nilaparvata lugens [6] it was 90%; with Nephotettix cincticeps [10], 30%. In addition, the mortality at 100 ppm came to 100% in the experiment with Nilaparvata lugens [5], 100% in the experiment on Nilaparvata lugens [8] and 80% in the experiment on Nephotettix cincticeps [9]. Besides, the inhibition in experiment [7] is 12%; in experiment [11], 4%.
